According to patent publication US5880099A, “Inositol polyphosphates and methods of using same” (The Regents of the University of California, priority 1997, dated 1999):
Entries after “also recorded” stand apart in the source; their conditions may differ.

What was measured:
[1] = system: T84 cells (Ins(3,4,5,6)P4 inhibition of histamine-stimulated chloride ion secretion); test: Reversal of Bt2 -Ins(3,4,5,6)P4 /AM inhibition of histamine-stimulated chloride ion secretion in T84 cells; format: cell-based, human; settings: T84 cells, histamine-stimulated
Protocol: (§1) Initial studies were directed towards understanding structural determinants of Ins(3,4,5,6)P4 responsible for the inhibitory effect on calcium-mediated chloride ion secretion. A series of cell permeable inositol polyphosphate derivatives were synthesized. These derivatives contained either one or two non-hydrolyzable chemical groups on the 1, 2 or 3 position. T84 monolayers were preincubated for 30 minutes with 200 μM of 2-Bt-1-Me-Ins(3,4,5,6)P4 /AM, Me2 -Ins(3,4,5,6)P4 /AM, Me2 -Ins(1,4,5,6)P4 /AM or 2-Bt-3-Me-Ins(1,4,5,6)P4 /AM.
(§2) Following the incubation, cells were mounted in Ussing chambers. Calcium-mediated chloride ion secretion was stimulated with histamine (10^-4 M). Control values were the response to histamine in coincubated monolayers. Data are represented as mean peak ΔIsc ±SEM, expressed as % control for 8 to 10 experiments. Significant differences were identified using the Student's two-tailed t test.
T84 cells were preincubated with cell permeant inositol polyphosphates as described above to determine if any of the inositol polyphosphate derivatives function as antagonists of Ins(3,4,5,6)P4 inhibition of calcium-mediated chloride ion secretion. Following histamine stimulation, short circuit current was measured. […] The % control shown in FIG. 3 represents ΔIsc over peak Isc in control monolayers stimulated with histamine. However, […]

[2] = system: colonic epithelial T84 cells (calcium-mediated chloride ion secretion); test: Inhibition of calcium-mediated chloride ion secretion (Table I summary); format: cell-based, human; settings: pathway: Ins (3,4,5,6)P4
Excerpt: The invention provides compounds that are agonists or antagonists of inositol polyphosphates. Inositol polyphosphate derivatives can function as inositol polyphosphate agonists and antagonists. The effects of compounds of the invention on Ins(3,4,5,6)P4 - and PtdInsP3 -mediated inhibition of calcium-mediated chloride ion secretion are described in the Examples and summarized in Table I.
(§3) Enantiomerically pure 1,2-Bt2 -Ins(3,4,5,6)P4 /AM was synthesized to determine if 1,2-Bt2 -Ins(3,4,5,6)P4 /AM mediates the uncoupling of chloride ion secretion from intracellular calcium concentrations. T84 cells (passages 18-48) were maintained as described previously (Weymer, et al., J. Clin. Invest. 76:1828 (1985)), which is incorporated herein by reference. After 7-10 days of incubation on SNAP-WELLS (Corning Costar; Cambridge, Mass.), monolayers had formed tight junctions. Cell monolayers were preincubated with 100, 200 or 400 μM Bt2 -Ins(3,4,5,6)P4 /AM for 30 min prior to mounting. After an additional 30 min, 0.1 mM histamine was added and chloride ion secretion was monitored. Chloride ion secretion was measured as short circuit current (Isc) across T84 monolayers grown to confluence and mounted in Ussing chambers equipped with voltage clamps (Physiologic Instruments; San Diego, Calif.). Data was acquired and analyzed using "Acquire and Analyze" software (Physiologic Instruments).

[3] = system: T84 cells (Ins(3,4,5,6)P4 inhibition of histamine-stimulated chloride ion secretion); test: Reversal of Bt2 -Ins(3,4,5,6)P4 /AM inhibition of histamine-stimulated chloride ion secretion in T84 cells; format: cell-based, human; settings: 400 μM antagonist + 200 μM Bt2 Ins (3,4,5,6)P4 /AM; mean ± SEM; 30 min
[4] = system: T84 cells (histamine-stimulated chloride ion secretion); test: Histamine-stimulated chloride ion secretion (short circuit current) in T84 monolayers; format: cell-based; settings: Homo sapiens, T84, 0.5 h; 800 μM compound alone; mean ± SEM; read-out: Peak ΔIsc (% Control) after histamine (100 μM)
[5] = system: T84 cells (histamine-stimulated chloride ion secretion); test: as above; format: cell-based, human; settings: for effect on histamine-stimulated / calcium-mediated chloride ion secretion (in words): T84 cells
Protocol: as §3, with “T84 cells (passages 18-48) were maintained as described previously (Weymer, et al., J. Clin. Invest. 76:1828 (1985)), which is incorporated herein by reference.” left out
as §1, §2

intracellular calcium = test: Intracellular calcium concentration in treated cells; format: cell-based, human
Protocol: Elevation in intracellular calcium concentration leads to increased chloride ion secretion. To ensure that none of the effects of the inositol polyphosphate derivatives on chloride ion secretion were due to changes in calcium levels, the concentration of intracellular calcium was measured in cells treated with the inositol polyphosphate derivatives. […] None of the compounds tested altered intracellular calcium levels by themselves or modified levels of intracellular calcium stimulated with carbachol or thapsigargin. Therefore, the effects of inositol polyphosphate derivatives on chloride ion secretion are not due to any effect on intracellular calcium concentrations.

[6] = system: T84 cells (cyclic AMP-mediated chloride ion secretion); test: Dibutyryl cyclic AMP acetoxymethyl ester stimulated chloride ion secretion in T84 cells; format: cell-based, human
Protocol: as §3, with “After an additional 30 min, 0.1 mM histamine was added and chloride ion secretion was monitored.” left out
[…]; mean±SEM; n=4).

[7] = system: rabbit colon (calcium-mediated chloride ion secretion); test: Chloride ion secretion in rabbit colonic epithelia (Ussing chambers)
Protocol: The results obtained above using T84 colonic epithelial cells in culture were confirmed using a rabbit colon model system (Frizzell et al., J. Membrane Biol. 27:297 (1976); and Frizell and Schultz, Int. Rev. Physiol. 19:205 (1979)), each of which is incorporated herein by reference. Segments of rabbit colon were excised and used as a source of rabbit colonic epithelia. Briefly, segments of rabbit colon were washed with Ringers solution containing 141 mM Na^+, 5 mM K^+, 1.2 mM Ca^2+, 1.2 mM Mg^2+, 122 mM Cl^-, 25 mM HCO3, 1.6 mM HPO4, 0.4 mM H2 PO4 and 10 mM glucose. At 37° C., this solution is pH 7.4 when gassed with 5% CO2 and 95% O2. Epithelium was stripped of the underlying muscle layer and mounted in modified SNAP WELLS (Frizzell et al., supra, 1976). Epithelia were preincubated with 200 μM 1,2-Bt2 -Ins(3,4,5,6)P4 /AM for 30 min at 37° C. and mounted in Ussing chambers. Short circuit current, conductance and resistance were measured at 4 sec intervals as described in Example I. Peak Isc was 50.9% ±10.4 of controls which were incubated with vehicle (FIG. 2; mean±SEM, n=3; p<0.05 by Student's two tailed t-test). The % control shown in FIG. 2 represents ΔIsc over peak Isc in control monolayers stimulated with histamine.

Ins(1,3,4)P3-5/6-kinase = settings: Vajanaphanich et al. 1994; cited from earlier work
[8] = system: T84 cells (thapsigargin-stimulated chloride ion secretion); test: Thapsigargin-stimulated chloride ion secretion in T84 cells; format: cell-based, human; settings: carbachol 10^-4 M, thapsigargin 1 μM; FIG. 5A
Excerpt: Carbachol, a muscarinic cholinergic compound, also increases intracellular calcium ion concentration and stimulates chloride ion secretion with short term treatment. However, following long-term treatment of colonic epithelial T84 cells with carbachol, increased concentrations of intracellular calcium ions no longer stimulate chloride ion secretion (Kachintorn et al., Am. J. Physiol. Cell 264:C671 (1993)), which is incorporated herein by reference. […] Thus, Ins(3,4,5,6)P4 is an endogenous negative regulator of calcium-mediated chloride ion secretion because it uncouples chloride ion secretion from calcium ion concentration.
One set of cells was preincubated for 30 min with an inositol polyphosphate derivative. The other two sets of cells were preincubated with vehicle, alone. Measurement of Isc was initiated at time 0. At 5 min, carbachol (10^-4 M) was added to one set of cells preincubated with vehicle alone (designated "Carbachol" in FIG. 5) and to the set of cells preincubated with inositol polyphosphate derivatives (designated "Carbachol+D,L-1,2-Cyclohexylidene-Ins(3,4,5,6)P4 /AM" in FIG. 5A). At 30 min, 1 μM thapsigargin was added. Data were collected for n=4 to 6 experiments.

Ins(3,4,5,6)P4 = settings: cited from earlier work
inositol 1 kinase = settings: in vitro; Tan et al.; cited from earlier work
[9] = system: T84 cells (histamine-stimulated chloride ion secretion); settings: equivalent to 200 μM extracellular concentration; Vajanaphanich et al.; cited from earlier work

CCCC(=O)O[C@@H]1[C@H](OC)[C@H](OP(=O)(OCOC(C)=O)OCOC(C)=O)[C@@H](OP(=O)(OCOC(C)=O)OCOC(C)=O)[C@H](OP(=O)(OCOC(C)=O)OCOC(C)=O)[C@H]1OP(=O)(OCOC(C)=O)OCOC(C)=O (relative stereo) [D,L-1-Bt-2-Me-Ins(3,4,5,6)P4 /AM, D,L-1-O-butyryl-2-O-methyl-myo-inositol 3,4,5,6-TKphosphate oct (acetoxymethyl) ester]
reversal of the inhibitory effect of Bt2 -Ins(3,4,5,6)P4 /AM / Ins(3,4,5,6)P4-mediated inhibition (in words) [1]: did not reverse the inhibition of Bt2 -Ins(1,4,5,6)P4 /AM | Mechanism and Inositol Polyphosphate Pathway Affected [2]: Agonist of | Peak ΔIsc (% Control) after histamine (100 μM) [3]: 96.7 ± 14.8 % Control | activity at 800 µM [4]: 114 ± 23.7% | effect on histamine-stimulated / calcium-mediated chloride ion secretion (in words) [5]: did not inhibit chloride ion secretion

CCCC(=O)O[C@@H]1[C@H](OC(=O)CCC)[C@H](OP(=O)(OCOC(C)=O)OCOC(C)=O)[C@@H](OP(=O)(OCOC(C)=O)OCOC(C)=O)[C@H](OP(=O)(OCOC(C)=O)OCOC(C)=O)[C@H]1OP(=O)(OCOC(C)=O)OCOC(C)=O [Bt2 -Ins(3,4,5,6)P4 /AM, 1,2-di-O-butyryl-myo-inositol 3,4,5,6-TKphosphate oct (acetoxymethyl) ester]
effect on intracellular calcium (in words) (intracellular calcium; alone): does not increase intracellular calcium | effect on calcium response to thapsigargin or carbachol (in words) (intracellular calcium; thapsigargin or carbachol stimulated): does not affect calcium response to thapsigargin | Mechanism and Inositol Polyphosphate Pathway Affected [2]: Agonist of | inhibition of dibutyryl cyclic AMP acetoxymethyl ester stimulated chloride ion secretion (in words) [6]: no inhibition | peak ΔIsc, dibutyryl cyclic AMP acetoxymethyl ester stimulated chloride ion secretion ([6]; mean±SEM, n=4): 96.3±9.1 % or control | effect on chloride ion secretion in rabbit colon (in words) ([7]; FIG. 2 / Example II): inhibition of chloride ion secretion; also recorded: decreases chloride ion secretion in rabbit colon | activity at 200 µM ([7]; Oryctolagus cuniculus, 0.5 h, 200 μM, 30 min at 37° C., mean±SEM, n=3, p<0.05, read-out: Peak Isc, of controls): 50.9% | effective intracellular concentration (Ins(1,3,4)P3-5/6-kinase): about 4 μM | activity at 100 µM ([5]; Homo sapiens, T84, 0.5 h, 100 μM compound, mean ± SEM, read-out: Peak ΔIsc (% Control) after histamine (100 μM)): 75.1 ± 7.4% | activity at 200 µM ([5]; Homo sapiens, T84, 0.5 h, 200 μM compound alone, mean ± SEM, read-out: Peak ΔIsc (% Control) after histamine (100 μM)): 57.2 ± 15.1% | activity at 400 µM ([5]; Homo sapiens, T84, 0.5 h, 400 μM compound alone, mean ± SEM, read-out: Peak ΔIsc (% Control) after histamine (100 μM)): 69.3 ± 8.7% | effect on histamine-stimulated / calcium-mediated chloride ion secretion (in words) [5]: inhibit calcium-mediated chloride secretion; also recorded: inhibited chloride ion secretion in response to increased concentrations of intracellular calcium; also recorded: decreased histamine-stimulated chloride ion secretion relative to control cells | concentration for maximum decrease of histamine-stimulated chloride ion secretion ([5]; extracellular, no further decrease with 400 μM): 200 µM

C[N+](C)(C)CCOC(N)=O [Carbachol]
effect of prolonged carbachol on thapsigargin-stimulated ΔIsc (in words) [8]: ΔIsc was attenuated | increase in Ins(3,4,5,6)P4 levels (Ins(3,4,5,6)P4; background): ≤ 20 -fold | rise of intracellular Ins(3,4,5,6)P4 levels (in words) (Ins(3,4,5,6)P4; long-term treatment, Vajanaphanich et al.): slow and prolonged rise of intracellular Ins(3,4,5,6)P4 levels

O=P(O)(O)O[C@H]1[C@H](O)[C@@H](O)[C@H](OP(=O)(O)O)[C@@H](OP(=O)(O)O)[C@H]1O [Ins(1,3,4)P3]
effect on inositol 1 kinase (in words) (inositol 1 kinase): inhibited inositol 1 kinase

O=P(O)(O)O[C@H]1[C@H](OP(=O)(O)O)[C@@H](OP(=O)(O)O)[C@@H](O)[C@@H](O)[C@@H]1OP(=O)(O)O [Ins(3,4,5,6)P4, myo-inositol 3,4,5,6-tetrakisphosphate]
intracellular level corresponding to onset of maximum inhibition [9]: ~4 µM
